Series [1] has as its target T1, recombinant human TG2 (hTG2) (Homo sapiens, UniProt P21980).
T1 construct: purchased Zedira
T1 sequence (P21980 1-687): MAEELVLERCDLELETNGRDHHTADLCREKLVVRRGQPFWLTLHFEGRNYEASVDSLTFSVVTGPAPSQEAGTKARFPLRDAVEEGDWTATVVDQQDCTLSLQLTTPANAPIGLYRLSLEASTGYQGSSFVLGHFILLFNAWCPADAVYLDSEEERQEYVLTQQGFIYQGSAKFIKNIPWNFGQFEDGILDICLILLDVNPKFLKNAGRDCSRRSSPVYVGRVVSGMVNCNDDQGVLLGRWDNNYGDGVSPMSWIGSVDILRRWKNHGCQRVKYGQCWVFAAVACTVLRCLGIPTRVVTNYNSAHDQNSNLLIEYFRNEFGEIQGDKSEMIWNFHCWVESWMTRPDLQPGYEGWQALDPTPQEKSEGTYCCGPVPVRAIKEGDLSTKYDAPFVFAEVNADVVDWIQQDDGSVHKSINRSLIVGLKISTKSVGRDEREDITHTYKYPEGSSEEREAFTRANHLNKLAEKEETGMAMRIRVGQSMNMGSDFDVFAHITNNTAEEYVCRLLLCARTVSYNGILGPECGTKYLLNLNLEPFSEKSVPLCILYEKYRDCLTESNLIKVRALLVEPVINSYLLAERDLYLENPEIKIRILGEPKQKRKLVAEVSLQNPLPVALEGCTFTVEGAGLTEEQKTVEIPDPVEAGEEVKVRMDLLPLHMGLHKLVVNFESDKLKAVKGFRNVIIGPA
In words: Inhibition of recombinant Transglutaminase activity (fluorescent substrate), human TG2. The class given is biochemical. Conditions: recombinant human TG2, Fig 2A. The protocol:
The potency and specificity of TG2 inhibitors was assessed with various recombinant TGs, as previously described. The reaction buffer (50 mM Tris, 100 mM NaCl, 10 mM CaCl2, 5 mM H-Gly-OMe*HCl (glycinemethylestherhydrochloride, Sigma), 5 mM hexadimethinbromide (Sigma), 9.1 mM DTT, pH 7.5) was heated to 37°C in a 96 well plate. Then 50 μM of the TG substrate Abz-NE(CAD-DNP)EQVSPLTLLK-OH (Zedira) was added. 1 μg/ml recombinant TG (human TG1, human (hTG2) / mouse TG2 (mTG2) or human Factor XIII (FXIII); Zedira) were added. The two lyophilized TG2 inhibitors (see Fig 1 for chemical structure) BJJF078 (3,4-Dimethoxy-N-(5-[4-(acryloylamino)piperidine-1-sulfonyl]-naphthalen-1-yl)-benzamide, kindly provided by Dr S. El Alaoui, Covalab, France) and ERW1041E (2-[(3-Bromo-4,5-dihydro-isoxazol-5-ylmethyl)-carbamoyl]-pyrrolidine-1—carboxylic acid quinolin-3-ylmethyl ester, kindly provided by Prof C. Khosla, Stanford University, USA) were dissolved in DMSO (stock solution: 54 mM) and stored at -80°C. These stocks were further diluted and various concentrations of the TG2 inhibitors (0.3 nM to 100 μM), were added to the wells (final DMSO concentration per well: 0.06%). The relative increase in fluorescence emission, correlating with enzymatic activity, was measured over 4 h with a fluorimeter (Excitation: 320nm, emission: 405 nm; Fluostar, GMB).

Series [2] has as its system inflammatory mediator mRNA in spinal cord. In words: qPCR of inflammation-related genes in spinal cord of EAE mice. Type of series: in vivo, mouse. The conditions noted are these: normalized to GAPDH. The protocol:
Total RNA from snap frozen spinal cord (pooled cervical, thoracic and lumbar region) was isolated using Trizol (Invitrogen) according to the manufacturer’s protocol. RNA concentration and purity was determined with a NanoDrop 2000 spectrophotometer (Thermo Fisher Scientific). Purity was accepted with a 260/230 nm absorbance ratio of 2.00–2.20 and a 260/280 ratio of 1.90.-2.00. For reverse transcription into cDNA, 1 μg of RNA was used with the High-Capacity cDNA Reverse Transcription kit (Life Technologies), using 50 pmol oligo-dT16 primers, according to the manufacturer’s instructions. For quantitative real-time PCR (qPCR), Power SYBR Green Master Mix (Applied Biosystems) was used according to manufacturer’s protocol. Intron-spanning primers (Table 2) were designed with Primer-BLAST [29], purchased from Eurogentec and used at 3.75 pmol per 12.5 ng cDNA in each reaction. Subsequently, qPCR was performed according to the previously published MIQE guidelines. The qPCR reaction was performed in a total volume of 20 μl in MicroAmp Optical 96-well Reaction Plates on a StepOnePlus Real-Time PCR system (Applied Biosystems). The thermal cycling conditions were an initial 10 min at 95°C followed by 50 cycles of 15 s at 95°C and 1 min at 60°C. The reaction specificity was verified by a melt curve analysis. The relative expression level of the target genes was determined by the LinRegPCR software (http://www.hfrc.nl, downloads, applications, lin reg PCR, version 2017) using the following calculation N0 = Nq/ECq (N0 = target quantity, Nq = fluorescence threshold value, E = mean PCR efficiency per amplicon, Cq = threshold cycle. The obtained values were normalized to glyceraldehyde-3-phosphate-dehydrogenase expression (GAPDH).
A general note: Quantitative PCR measures a nucleic acid by following its amplification.

The conditions of series [3]: proposed; reference not given; cited from earlier work.

We go through 2 compounds from paper PMC5918173, “Characterization of Transglutaminase 2 activity inhibitors in monocytes in vitro and their effect in a mouse model for multiple sclerosis” (PLoS ONE, 2018).

Broadly, the IC50 is the concentration that inhibits the measured activity by half.

Molecules are shown by their SMILES.

For the compound `C=CC(=O)NC1CCN(S(=O)(=O)c2cccc3c(NC(=O)c4ccc(OC)c(OC)c4)cccc23)CC1` [BJJF078, 3,4-Dimethoxy-N-(5-[4-(acryloylamino)piperidine-1-sulfonyl]-naphthalen-1-yl)-benzamide], in series [1], the IC50 is 41 nM.
Consider `O=C(NCC1CC(Br)=NO1)C1CCCN1C(=O)OCc1cnc2ccccc2c1` (centres unmarked) [ERW1041E, 2-[(3-Bromo-4,5-dihydro-isoxazol-5-ylmethyl)-carbamoyl]-pyrrolidine-1—carboxylic acid quinolin-3-ylmethyl ester], for which, in series [1], the IC50 is 1600 nM. Moreover, the “IL-1ra mRNA level in spinal cord versus vehicle” value in series [2] (Fig 7a) is given as “not significantly changed”. For the same compound, the “IL-1β mRNA level in spinal cord versus vehicle” value in series [2] (Fig 7b) is listed as “not significantly changed”. The “IFNγ mRNA level in spinal cord versus vehicle” value in series [2] (Fig 7c) is on record as “not significantly changed”. Besides, the “iNOS mRNA level in spinal cord versus vehicle” value in series [2] (Fig 7e) is given as “slightly but not significantly enhanced”. Further, the “TNFα mRNA level in spinal cord versus vehicle” value in series [2] (Fig 7d) was “slightly but not significantly enhanced”. In addition, the “inhibitory in vivo half-life” value in series [3] is 12 h.
